The text below walks through data of patent publication US10722518B2, “Oxazine derivative for use in the treatment or prevention of cerebral amyloid angiopathy” (Novartis AG, priority 2016, dated 2020).

Each structure is given as a SMILES string.

The subject of data set [1] is Aβ40 in CSF. The data set is described as follows: First-in-human single and multiple ascending oral dose study: Aβ40 in CSF. The data set is classed as in vivo. The following applies: for Dose-dependent lowering of Aβ40 concentrations in CSF, up to: healthy elderly subjects. The procedure: (§1) The purpose of this study was to determine the single and multiple maximum tolerated dose of Compound 1 and to assess the pharmacokinetic/pharmacodynamic (PK/PD) relationship using Aβ in CSF as primary PD biomarker.
Pharmacodynamic assessments using Aβ concentrations in CSF as primary biomarker of drug action were also been applied in healthy elderly subjects. Dose-dependent lowering of Aβ40 concentrations was determined up to approximately 80% and 90% after single and multiple dosing, respectively (Tables 9 and 10, FIG. 7).
(§2) In the completed first-in-human and 3-month dose-ranging safety and tolerability clinical studies described in Examples 3 and 4, Aβ concentrations in CSF were obtained by means of lumbar punctures before the first dose (baseline) and respectively after 2 weeks and 3 months of multiple dosing. ApoE4 genotype also was obtained in the subjects who consented. The percent change from baseline in Aβ40 and Aβ42 concentrations was calculated in subjects who took the study treatment and had no major protocol deviation with potential impact on the evaluation of the pharmacodynamic effect. Tables 13 to 16 below provide summary statistics of the percent change from baseline by treatment group and ApoE genotype (E4 heterozygotes versus E4 non-carriers). Only one subject with CSF data was E4 homozygote (from the 3-month dose-ranging safety and tolerability study).

Data set [2] can be described thus: First-in-human study: safety and tolerability. In kind it is in vivo. The following applies: healthy elderly subjects ≥60 years.
Description: as §1

Data set [3] concerns Aβ40 in CSF. The data set is described as follows: 3-month dose-ranging study: Aβ40 in CSF. The data set is classed as in vivo. The settings on record: first-in-human and 3-month studies.
Description: This study is listed in ClinicalTrials.gov under the NCT02576639 Identifier code.
The primary purpose of this study was to expand on previous safety and tolerability data obtained over 2-week and 4-week duration in the first in human study and thereby allow initiation of future long-term efficacy trials in subjects at risk of AD and CAA. In addition, data relevant for Pharmacokinetic/Pharmacodynamic modeling was obtained in order to support dose selection decisions for future efficacy studies.
The extent of Aβ lowering was stable over time with PD steady-state being reached after approximately 2-3 weeks.
as §2, with “Only one subject with CSF data was E4 homozygote (from the 3-month dose-ranging safety and tolerability study).” left out

The next data set deals with Aβ40. The data set is described as follows: Chronic treatment of APP23 mice: Triton TX-100 soluble Aβ40 in brain. The data set is classed as in vivo, mouse. On the procedure:
Frozen mouse forebrains were weighed and homogenized in 9 volumes (w/v) of ice-cold TBS-Complete (20 mM Tris-HCl pH 7.4, 137 mM NaCl, 1× Complete [Protease Inhibitor Cocktail Tablets: 1 836 145, Roche Diagnostics GmbH, Penzberg, Germany]) by sonication (90% duty cycle, output control 5, 40-55 pulses, [Sonifier 450, Branson]). After homogenization several 50 μl aliquots were prepared for analysis and were stored at −80° C.
Human Aβ40 and 42 in mice was determined with the Meso Scale Discovery (MSD) 96-well MULTI-ARRAY human/rodent (6E10) Aβ40/42 Assay (Meso Scale Discovery, Rockville, Md., USA) as described in [RD-2010-00284]. The assay was done according to the manufacturer's instructions except for the calibration curve and the sample preparations. TritonX-100 (TX-100) soluble Aβ40 and 42 was extracted from forebrain with 1% TX-100 using a 50 μl aliquot of each 1:10 forebrain homogenate, mixed with 50 μl 2% TX-100 in TBS complete (20 mM Tris-HCl pH 7.4, 137 mM NaCl, 1× Complete [Protease Inhibitor Cocktail Tablets: 1 836 145, Roche Diagnostics GmbH, Penzberg Germany]) to reach a final concentration of 1% TX-100 and a 1:20 forebrain dilution. The samples were incubated for 15 min on ice and vortexed every 5 min. The samples were ultra-centrifuged (100000×g, 4° C., 15 min) and 50 μl of the clear supernatants were transferred to fresh tubes. The supernatants were further diluted 1:5 in 3% Blocker A solution (from kit) to a final forebrain dilution of 1:100 and applied to the plate.
The calibration curve was prepared in a corresponding dilution of 1% Blocker A solution spiked with synthetic Aβ1-40 peptide (1.56-100 pg/ml) except for non-transgenic mouse brain samples: In this case, the calibration curve was prepared in a correspondingly diluted APP knockout mouse forebrain spiked with synthetic Aβ1-40 peptide (1.56-100 pg/ml). For all samples and standards 25 μl were applied per well. For each determination duplicate wells were done. The mean values from the duplicate wells were used for calculations. The relative units for samples and standards were imported into SOFTmax PRO 4.0 for calculation of standard curves and quantification of samples.
Brain homogenates were extracted with 1% Triton X-100 in buffer and the resulting supernatant was considered to represent soluble forms of APP metabolites. In addition to Aβ40 and 42, we determined the N-terminal APP fragments sAPPα (direct cleavage product of α-secretase) and sAPPβ (Swe) (direct product of BACE1 cleavage). […] Since no change in the APP expression and Aβ generation is known to happen during this age, it is assumed that the increased values in the vehicle group (18-20 mo old) arise from “leakage” out of the Aβ deposits (which increase several fold, see below).

For a further data set, the system named is APP23 mice. The data set is described as follows: 13-week oral safety study in aged APP23 mice: MRI of microhaemorrhagic lesions. The data set is classed as in vivo, mouse. The following applies: aged female APP23 mice.
A short description of data set [4]: 13-week oral safety study in aged APP23 mice: body weight. The data set is classed as in vivo, mouse. The settings on record: chronic treatment, 13 weeks; aged female APP23 mice. On the procedure: Body weight range: 26 to 36 g (at start of dosing)
Means and standard deviations (SD), standard error of the mean (SEM) and coefficient of variation (CV) as indicated accordingly were calculated and an Analysis of Variance (ANOVA) performed. For the analysis of body weights a 2way ANOVA with Turkey's multiple comparison test was performed using GraphPad Prism 6. ANOVA with random effects statistical analyses were performed on MRI data using Systat Version 13 (Systat Software, Inc., San Jose, Calif., USA).

Data set [5] is described as follows: 13-week oral safety study in aged APP23 mice: plasma and brain concentrations of Compound 1 (toxicokinetics). In kind it is in vivo. The settings on record: female, APP23, mouse, 0.3 g/kg food. The procedure:
Sections of brain were collected at necropsy from all scheduled animals. […] Rest of the brain was fixed in 10% neutral-buffered formalin.
Blood was obtained from all the animals at necropsy. Approximately 0.3 mL of whole blood was collected after euthanasia from the vena cava into tubes containing EDTA as anticoagulant. The tubes were placed in ice water during the sampling period. Plasma was separated thereafter by centrifugation (10 min, 1270 G, +4° C.) and transferred to one uniquely labelled clear tube (1.8 mL NUNC 2D coded tubes from Thermo) and frozen at −70° C. or below.
About 100 to 200 mg of brain tissue were collected, weighed into 1.8 mL NUNC 2D coded tubes from Thermo, and frozen at −70° C. or below.

The nature of data set [6]: Off-target binding or activity.

For the compound `C[C@@]1(c2nc(NC(=O)c3ncc(C(F)(F)F)cc3Cl)ccc2F)CO[C@@](C)(C(F)(F)F)C(N)=N1` [Compound 1, N-(6-((3R,6R)-5-amino-3,6-dimethyl-6-(trifluoromethyl)-3,6-dihydro-2H-1,4-oxazin-3-yl)-5-fluoropyridin-2-yl)-3-chloro-5-(trifluoromethyl)picolinamide], the “Dose-dependent lowering of Aβ40 concentrations in CSF, up to” value in the data set on Aβ40 in CSF [1] (multiple dosing) is on record as about 90%; with Aβ40 in CSF [1] (single dosing) it was “approximately 80%”. The “Aβ40 in CSF percent change from baseline, Median” value in the data set with Aβ40 in CSF [1] (single dose 10 mg, 24 h) is listed as −14.3%. In addition, the safety and tolerability result in data set [2] (300 mg QD over two weeks) is “safe and tolerated”; in data set [2] (750 mg single dose), “safe and tolerated”. Moreover, the “CSF Aβ40 and Aβ42 response to treatment, ApoE4 carriers vs non-carriers” value with Aβ40 in CSF [3] is reported as “no difference”. Besides, the “Aβ40 change vs vehicle (TX-100 soluble)” value is recorded as −4.6% in the data set with Aβ40 (0.03 g/kg vs vehicle) and −43.7% with Aβ40 (0.3 g/kg vs vehicle). Besides, the entries for the “treatment effects on soluble Aβ species from brain tissue and Aβ40 in CSF” value in the data set with Aβ40 (high Compound 1 dose) and in the data set with Aβ40 (low Compound 1 dose) were −43.7 to −77% and −4.6 to −20%, respectively. Moreover, in the data set with APP23 mice (1, 2 and 3 months of treatment), the “total lesion volume detected by MRI” value is “did not exacerbate lesion volumes”. For the same compound, the “lesion numbers (mean±SEM) by MRI” value with APP23 mice (month 3) is given as 11.5±2.0. For the same compound, the body weight result in data set [4] is recorded as “did not lead to any change in body weight”. The concentration at 13 weeks in data set [5] (brain (cerebellum, level 7), end of the study) came to 4030 ng/g; in data set [5] (plasma, end of the study), 1210 ng/mL. In addition, the Kp at 96 day in data set [5] (brain / plasma, day 96, read-out: brain concentration compared to plasma, range) lay in the range of 2.2 to 6.1. Besides, the Kp at 13 weeks in data set [5] (brain / plasma, end of the study, read-out: average of the ratio brain over plasma) came out at 3.3. Further, the “off-target binding or activity” value in data set [6] was “no relevant off-target binding or activity”.
